Assay results: paper PMC10574351, “First-Row Transition Metal Complexes Incorporating the 2-(2′-pyridyl)quinoxaline Ligand (pqx), as Potent Inflammatory Mediators: Cytotoxic Properties and Biological Activities against the Platelet-Activating Factor (PAF) and Thrombin” (Molecules, 2023)

Tested on: dithiothreitol-insensitive PAF choline phosphotransferase (PAF-CPT)
Assay: PAF-CPT activity assay on leukocyte homogenate
Type: biochemical
Conditions: rabbit leukocyte homogenate; Figure 8
Protocol: The experiment on the inhibitory effect of each compound of interest against the washed rabbit platelets (WRPs) aggregation was carried out as per the already described method. The platelets were from male New Zealand white rabbits (about 20), individually housed in stainless steel cages in an air-conditioned room (19 ± 1 °C, 55 ± 5% humidity on a 12/12 h artificial light/dark cycle). Blood samples were drawn from the main ear artery. Microliters of PAF in a final concentration of about 10^–10 M were added to the cuvette of the aggregometer, and the height of the platelet aggregation was monitored. […] Dithiothreitol-insensitive PAF choline phosphotransferase, lyso-PAF:acetyl-CoA acetyltransferase and PAF-acetylhydrolase activity assays were performed on the homogenates of rabbit leukocytes while the activity of lipoprotein-associated phospholipase A2 was assessed on plasma as previously described. […] All results were expressed as mean ± standard deviation (SD). […] Data were analyzed using a statistical software package (SPSS for Windows, 16.0, 2007, SPSS Inc., Chicago, IL, USA) and Microsoft Excel 2007. […]

Question: With [Fe(pqx)Cl2]2 [Complex 6] as the substance, how does the “inhibition of the specific activity of PAF-CPT” value read?
Answer: inhibit, in a dose-dependent way
